Where two headings read alike, the source gives them in different places.
What was measured:
[1] = test system: B16 mouse melanoma cells; experiment: cell viability in the B16 cell-based assay (Viability, B16 IC50); conditions: Mus musculus
In short: (§1)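 Cell death was scored within the cell-based GM3 experiment for each line. The viability value is the concentration producing 50% death, and numbers exceeding 10 signify no cytotoxicity.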

[2] = test system: C32 human melanoma cells; experiment: cell viability in the C32 cell-based assay (Viability, C32 IC50); conditions: Homo sapiens, concentration causing 50% cell death, values greater than 10 represent a lack of cell death
In short: as §1

[3] = biological target: T1, glucosylceramide synthase (Homo sapiens, UniProt Q16739); experiment: microsomal assay measuring conversion of ceramide to glucosylceramide by HPLC (GCS IC50); type: biochemical; conditions: concentration causing 50% inhibition of glucosylceramide synthase activity
T1 construct: Microsomes were isolated from A375 human melanoma cells; endogenous in cells; host or cells: A375 human melanoma cells (microsomal fraction, 100,000 g pellet)
T1 sequence (Q16739 1-394): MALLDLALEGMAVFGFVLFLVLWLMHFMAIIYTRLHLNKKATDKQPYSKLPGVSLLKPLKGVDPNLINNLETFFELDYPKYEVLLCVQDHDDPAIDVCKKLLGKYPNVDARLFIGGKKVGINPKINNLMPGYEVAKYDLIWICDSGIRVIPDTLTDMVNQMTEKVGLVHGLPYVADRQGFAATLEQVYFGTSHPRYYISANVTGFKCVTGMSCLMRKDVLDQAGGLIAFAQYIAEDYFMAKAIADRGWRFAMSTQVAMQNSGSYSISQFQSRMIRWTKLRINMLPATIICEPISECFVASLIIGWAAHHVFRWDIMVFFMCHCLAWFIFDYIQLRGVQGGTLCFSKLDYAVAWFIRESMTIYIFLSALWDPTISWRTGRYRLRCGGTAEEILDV
In short: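 IC50 is the compound concentration halving glucosylceramide synthase activity. Activity was measured in microsomes, with HPLC quantifying glucosylceramide formed from ceramide.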

[4] = test system: GM3 expression on the cell surface, B16 mouse melanoma cells; experiment: cell based phenotypic assay, cell surface GM3 by antibody mediated immunofluorescence, B16 (GM3 B16 IC50); conditions: Mus musculus, 50% inhibition of GM3 expression on the cell surface
In short: (§2)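 B16 mouse and C32 human melanoma cells; cell-surface GM3 measured by antibody-mediated immunofluorescence, giving IC50.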

[5] = test system: GM3 expression on the cell surface, C32 human melanoma cells; experiment: cell based phenotypic assay, cell surface GM3 by antibody mediated immunofluorescence, C32 (GM3 C32 IC50); conditions: Homo sapiens, 50% inhibition of GM3 expression on the cell surface
In short: as §2

[6] = B16, B16 cells, concentration causing 50% cell death, values greater than 10 represent a lack of cell death, read-out: Viability, B16 IC50
[7] = C32, C32 cells, read-out: Viability, C32 IC50
[8] = B16 mouse melanoma cells, read-out: GM3 B16 IC50
[9] = C32 human melanoma cells, read-out: GM3 C32 IC50
[10] = B16, read-out: Viability, B16 IC50
[11] = C32, read-out: Viability, C32 IC50, C32 cells
[12] = read-out: GM3 B16 IC50, B16 mouse melanoma cells
[13] = read-out: GM3 C32 IC50, C32 human melanoma cells

Structure (SMILES)	IC50 [1, 6]	IC50 [2, 7]	IC50 [3]	IC50 [4, 8]	IC50 [5, 9]	IC50 [1, 10]	IC50 [2, 11]	IC50 [4, 12]	IC50 [5, 13]
COCc1ccc(-c2ccnc(N3CCN(C(=O)NC4(C)CCN5CCC4CC5)CC3C(F)(F)F)n2)cc1 (stereo not drawn) [Example 149, 4-(4-(4-(Methoxymethyl)phenyl)pyrimidin-2-yl)-N-(4-methyl-1-azabicyclo[3.2.2]nonan-4-yl)-3-(trifluoromethyl)piperazine-1-carboxamide]	4310 nM	1000 nM	10.9 nM	279 nM	1.5 nM	–	–	–	–
COCc1ccc(-c2ccnc(N3CCN(C(=O)NC4(C)CCN5CCC4CC5)CC3C(F)F)n2)cc1 (stereo not drawn) [Example 150, 3-(Difluoromethyl)-4-(4-(4-(methoxymethyl)phenyl)pyrimidin-2-yl)-N-(4-methyl-1-azabicyclo[3.2.2]nonan-4-yl)piperazine-1-carboxamide]	5440 nM	1000 nM	23 nM	195 nM	1.06 nM	–	–	–	–
COCc1ccc(-c2ncnc(N3CCN(C(=O)NC4(C)CCN5CCC4CC5)CC3C(C)C)n2)cc1 (stereo not drawn) [Example 151, 3-Isopropyl-4-(4-(4-(methoxymethyl)phenyl)-1,3,5-triazin-2-yl)-N-(4-methyl-1-azabicyclo[3.2.2]nonan-4-yl)piperazine-1-carboxamide]	9840 nM	1000 nM	324 nM	1820 nM	95.6 nM	–	–	–	–
C[C@@H]1CN(C(=O)NC2(C)CCN3CCC2CC3)CCN1c1ncc(Oc2ccc(F)cc2)cn1 (stereo partly drawn) [Example 152, (3R)-4-(5-(4-Fluorophenoxy)pyrimidin-2-yl)-3-methyl-N-(4-methyl-1-azabicyclo[3.2.2]nonan-4-yl)piperazine-1-carboxamide]	6770 nM	316 nM	2.88 nM	76.3 nM	0.439 nM	–	–	–	–
C#CC1CN(C(=O)NC2(C)CCN3CCC2CC3)CCN1c1nccc(-c2ccc(COC)cc2)n1 (stereo not drawn) [Example 153, 3-Ethynyl-4-(4-(4-(methoxymethyl)phenyl)pyrimidin-2-yl)-N-(4-methyl-1-azabicyclo[3.2.2]nonan-4-yl)piperazine-1-carboxamide]	≥ 10000 nM	1000 nM	53.4 nM	2640 nM	11.7 nM	–	–	–	–
CC1CN(C(=O)OC2CCN3CCC2CC3)CCN1c1nccc(-c2ccccc2)n1 (stereo not drawn) [Example 154, 1-Azabicyclo[3.2.2]nonan-4-yl 3-methyl-4-(4-phenylpyrimidin-2-yl)piperazine-1-carboxylate]	2840 nM	1000 nM	57 nM	1930 nM	16.5 nM	–	–	–	–
COCCOc1ccc(-c2ccc(C(C)(C)NC(=O)OC3CN4CCC3CC4)cc2)cc1 (stereo not drawn) [Example 155, Quinuclidin-3-yl (2-(4′-(2-methoxyethoxy)-[1,1′-biphenyl]-4-yl)propan-2-yl)carbamate]	–	–	3.48 nM	–	–	1000 nM	215 nM	38.6 nM	0.657 nM
COCCOc1ccc(-c2ccc(C(C)(C)NC(=O)N[C@@]3(C)CN4CCC3CC4)cc2)cc1 [Example 157, (R)-1-(2-(4′-(2-Methoxyethoxy)-[1,1′-biphenyl]-4-yl)propan-2-yl)-3-(3-methylquinuclidin-3-yl)urea]	3160 nM	3160 nM	228 nM	538 nM	42 nM	–	–	–	–
COCCOc1ccc(-c2ccc(C(C)(C)NC(=O)N[C@]3(C)CN4CCC3CC4)cc2)cc1 [Example 158, (S)-1-(2-(4′-(2-Methoxyethoxy)-[1,1′-biphenyl]-4-yl)propan-2-yl)-3-(3-methylquinuclidin-3-yl)urea]	631 nM	631 nM	2.85 nM	7.62 nM	0.529 nM	–	–	–	–
CCC1(NC(=O)NC(C)(C)c2ccc(-c3ccc(OCCOC)cc3)cc2)CN2CCC1CC2 (stereo not drawn) [Example 159, 1-(3-Ethylquinuclidin-3-yl)-3-(2-(4′-(2-methoxyethoxy)-[1,1′-biphenyl]-4-yl)propan-2-yl)urea]	1000 nM	1000 nM	5.6 nM	4.46 nM	0.636 nM	–	–	–	–
COCCOc1ccc(-c2ccc(C(C)(C)NC(=O)NC3(C)CCN4CCC3CC4)cc2)cc1 (stereo not drawn) [Example 160, 1-(2-(4′-(2-Methoxyethoxy)-[1,1′-biphenyl]-4-yl)propan-2-yl)-3-(4-methyl-1-azabicyclo[3.2.2]nonan-4-yl)urea]	1000 nM	1000 nM	3.91 nM	1.9 nM	0.544 nM	–	–	–	–
COCCOc1ccc(-c2ccc(C(C)(C)NC(=O)N3CCN4CCC3CC4)cc2)cc1 [Example 161, N-(2-(4′-(2-Methoxyethoxy)-[1,1′-biphenyl]-4-yl)propan-2-yl)-1,4-diazabicyclo[3.2.2]nonane-4-carboxamide]	3160 nM	3160 nM	250 nM	311 nM	32.7 nM	–	–	–	–
COCCOc1ccc(-c2ccc(C3(NC(=O)NC4CN5CCC4CC5)CC3)cc2)cc1 (stereo not drawn) [Example 162, 1-(1-(4′-(2-Methoxyethoxy)-[1,1′-biphenyl]-4-yl)cyclopropyl)-3-(quinuclidin-3-yl)urea]	3540 nM	1000 nM	28.1 nM	72.7 nM	2.21 nM	–	–	–	–
COCCOc1ccc(-c2ccc(C3(NC(=O)NC4(C)CN5CCC4CC5)CC3)cc2)cc1 (stereo not drawn) [Example 163, 1-(1-(4′-(2-Methoxyethoxy)-[1,1′-biphenyl]-4-yl)cyclopropyl)-3-(3-methylquinuclidin-3-yl)urea]	1000 nM	173 nM	8.49 nM	6.57 nM	0.539 nM	–	–	–	–
CCC1(NC(=O)NC2(c3ccc(-c4ccc(OCCOC)cc4)cc3)CC2)CN2CCC1CC2 (stereo not drawn) [Example 164, 1-(3-Ethylquinuclidin-3-yl)-3-(1-(4′-(2-methoxyethoxy)-[1,1′-biphenyl]-4-yl)cyclopropyl)urea]	1000 nM	173 nM	6.16 nM	2.51 nM	0.205 nM	–	–	–	–
COCCOc1ccc(-c2ccc(C3(NC(=O)NC4(C)CCN5CCC4CC5)CC3)cc2)cc1 (stereo not drawn) [Example 165, 1-(1-(4′-(2-Methoxyethoxy)-[1,1′-biphenyl]-4-yl)cyclopropyl)-3-(4-methyl-1-azabicyclo[3.2.2]nonan-4-yl)urea]	316 nM	31.6 nM	4.15 nM	0.516 nM	0.24 nM	–	–	–	–
COCCOc1ccc(-c2ccc(C3(NC(=O)OC4CN5CCC4CC5)CC3)cc2)cc1 (stereo not drawn) [Example 166, Quinuclidin-3-yl (1-(4′-(2-methoxyethoxy)-[1,1′-biphenyl]-4-yl)cyclopropyl)carbamate]	–	–	5.69 nM	–	–	316 nM	215 nM	21.9 nM	1.81 nM
COCCOc1cccc(-c2ccc(C(C)(C)NC(=O)OC3CN4CCC3CC4)cc2)c1 (stereo not drawn) [Example 167, Quinuclidin-3-yl (2-(3′-(2-methoxyethoxy)-[1,1′-biphenyl]-4-yl)propan-2-yl)carbamate]	–	–	10.4 nM	–	–	≥ 10000 nM	1000 nM	109 nM	5.31 nM
COCCOc1cccc(-c2ccc(C(C)(C)NC(=O)OC3CCN4CCC3CC4)cc2)c1 (stereo not drawn) [Example 168, 1-Azabicyclo[3.2.2]nonan-4-yl (2-(3′-(2-methoxyethoxy)-[1,1′-biphenyl]-4-yl)propan-2-yl)carbamate]	≥ 10000 nM	1000 nM	5.56 nM	79.3 nM	3.34 nM	–	–	–	–
COCCOc1cccc(-c2ccc(C(C)(C)NC(=O)N3CCN4CCC3CC4)cc2)c1 [Example 169, N-(2-(3′-(2-Methoxyethoxy)-[1,1′-biphenyl]-4-yl)propan-2-yl)-1,4-diazabicyclo[3.2.2]nonane-4-carboxamide]	≥ 10000 nM	1000 nM	257 nM	283 nM	18 nM	–	–	–	–
COCCOc1ccc(-c2cccc(C(C)(C)NC(=O)OC3CN4CCC3CC4)c2)cc1 (stereo not drawn) [Example 170, Quinuclidin-3-yl (2-(4′-(2-methoxyethoxy)-[1,1′-biphenyl]-3-yl)propan-2-yl)carbamate]	–	–	26.7 nM	–	–	≥ 10000 nM	≥ 10000 nM	29.5 nM	4.94 nM

From patent publication US12060349B2, “Glucosylceramide synthase inhibitors” (Genzyme Corporation, priority 2012, dated 2024)
